Data set [1] has as its system bovine cytochrome c oxidase (CytcO) reconstituted into proteoliposomes. Format: biochemical.
Procedure: When ionophores (valinomycin, a K^+ ionophore, and/or FCCP, a protonophore similar to CCCP) are added, this gradient is partly or fully dissipated, and the so-called uncoupled rate is reached. […] Thus, we determined the RCRs after adding the Arp-1 and Arp1-L11K peptides, and as positive controls we added valinomycin and FCCP in addition to the peptides (Fig. 4B and Fig. S4C).
(A) CytcO reduces O2 to H2O, using electrons from reduced cytochrome (cyt.) c and protons from inside the liposomes. In addition, protons are pumped and a proton electrochemical gradient (positive outside) across the membrane is established. Valinomycin, a K^+ ionophore, can dissipate the charge component and FCCP, a protonophore, both components of this gradient. (B) A typical oxygen consumption experiment; the baseline with only ascorbate, TMPD, and cyt. c was first measured. Proteoliposomes then were added, initiating oxygen consumption by CytcO and build-up of a membrane potential. The coupled rate is the slope after liposome addition subtracting the baseline. Peptides (Arp1 or L11K), valinomycin, and FCCP were added, in this order, and the rates measured. RCRs were determined by dividing the different rates by the initial coupled rate. […]
CytcO activity was measured using a Clark-type oxygen electrode (Hansatech) at 25°C. […] Oxygen consumption rates and RCRs were measured essentially as described in reference [43].
For data set [2], the system named is Escherichia coli K-12 strain BW25113. The data set can be described thus: MIC determination (Etest) in strains expressing the peptides. Format: cell-based. Particulars: for Increased aminoglycoside resistance on overexpression of endogenous E. coli peptides: TisB from a pBAD promoter, arabinose 0.0125 to 0.2%, at viable expression levels. How it is done: Most strains used in this study were derived from Escherichia coli K-12 BW25113 (designated E. coli throughout the text) and are listed in Table S1 in the supplemental material. If not indicated otherwise, Muller Hinton broth (MHB) (Becton, Dickinson) was used for growth in liquid cultures and Muller Hinton agar (MHA; MHB supplemented with 15 g/liter agar) for growth on plates. To maintain the plasmid pRD2 or pBAD18, the growth media were supplemented with 100 mg/liter ampicillin or 15 mg/liter chloramphenicol, respectively. Induction of expression was performed in the presence of 1 mM IPTG (pRD2) or 0.2% arabinose (pBAD18). For counterselection of sacB, no-salt lysogeny agar plates (10 g/liter tryptone, 5 g/liter yeast extract, 15 g/liter agar, and 50 g/liter sucrose) were used. Recovery after transformation was done in SOC medium (20 g/liter tryptone, 5 g/liter yeast extract, 0.5 g/liter NaCl, 10 mM MgCl2, […], and 4 g/liter glucose). For washing and dilution of cells, phosphate-buffered saline (PBS; 8 g/liter NaCl, 0.2 g/liter KCl, 1.44 g/liter Na2HPO4, and 0.24 g/liter KH2PO4) was used.
MICs were determined using Etest strips (bioMérieux). Overnight cultures of the strains of interest were diluted 1:20 in PBS and spread on an MHA plate containing 100 mg/liter ampicillin and 1 mM IPTG where necessary with a cotton swab. Etest strips were applied in the middle of the plates and incubated at 37°C overnight. MIC values were scored after 20 h of incubation. Colistin MICs were determined using microdilution. For this, bacteria were grown on MHA with 100 mg/liter ampicillin, and 1 to 2 colonies were dissolved in 1 ml PBS to approximately 0.5 McFarland. The cell suspension was diluted 1:100 in Muller Hinton 2 broth (cation adjusted), and 50 μl was mixed with 50 μl Muller Hinton 2 broth containing 0.4% arabinose, 30 mg/liter chloramphenicol, and a 2-fold dilution series of colistin. The assay was performed in round-bottomed 96-well plates at 37°C overnight in a stationary position. The MIC was determined as the concentration where no growth could be observed and is based on a minimum of two biological replicates. If the determined values of the replicates were not identical, a third replicate was performed.
The site saturation mutagenesis was performed with GeneArt (ThermoFisher) based on the sequence of Arp1, where each position in the wild-type sequence was replaced by the amino acids lysine (K), glutamic acid (E), proline (P), tryptophan (W), and serine (S). All variants were subcloned into our modified expression vector, pBAD18-RND, using the AgeI/HindIII cloning sites, transformed into E. coli, and delivered as a total pool glycerol stock. […] The plasmid variants were determined by Sanger sequencing (Eurofins, Germany). […]

The next data set has as its system E. coli. Nature of the data set: Toxicity of peptides when expressed. It counts as cell-based, Escherichia coli. Particulars: expressed in E. coli from pBAD vector.
The test system of data set [3] is E. coli membrane potential. The data set can be described thus: Membrane potential assay with DiBAC4(3). It counts as cell-based, Escherichia coli. Particulars: 100 μM CCCP, 30 min, room temperature; positive control. How it is done:
Bacteria were grown overnight in MHB supplemented with 15 mg/liter chloramphenicol at 37°C. The following day all cultures were diluted 1:100 in MHB supplemented with 15 mg/liter chloramphenicol and grown to an OD600 of approximately 0.3 (time point 0). At the target OD600, IPTG was added to each culture to a final concentration of 1 mM, and cells were incubated for another 60 min to allow expression of proteins (time point 1). At both time points, approximately 10^6 cells were transferred to 1 ml PBS with 10 mg/liter DiBAC4(3) (D8189; Sigma-Aldrich) with or without 100 μM carbonyl cyanide 3-chlorophenylhydrazone (CCCP; Sigma-Aldrich) and incubated for 30 min at room temperature in the dark. Fluorescence was measured with a MACSQuant VYB (Miltenyi Biotec) using the GFP/FITC (green fluorescent protein/fluorescein isothiocyanate) channel and a threshold of 15,000 gated cells. The raw data were analyzed and visualized with FlowJo (BD Bioscience).

Read-outs that look alike come from different tables or passages of the source.

Turning to `N#CC(C#N)=NNc1ccc(OC(F)(F)F)cc1` [FCCP], the “Effect of ionophore added in addition to Arp1 peptide” value in data set [1] is listed as “fully collapsed the gradient”.

For `CC(C)[C@@H]1NC(=O)[C@H](C)OC(=O)[C@@H](C(C)C)NC(=O)[C@@H](C(C)C)OC(=O)[C@H](C(C)C)NC(=O)[C@H](C)OC(=O)[C@@H](C(C)C)NC(=O)[C@@H](C(C)C)OC(=O)[C@H](C(C)C)NC(=O)[C@H](C)OC(=O)[C@@H](C(C)C)NC(=O)[C@@H](C(C)C)OC1=O` [Valinomycin, valinomycin], the “Effect of ionophore added in addition to Arp1 peptide” value in data set [1] (valinomycin 6 μM, then FCCP 21 μM, positive controls) was “further rate increase”.

Take `NC[C@H]1O[C@H](O[C@H]2[C@H](O)[C@@H](O[C@H]3O[C@H](CO)[C@@H](O)[C@H](N)[C@H]3O)[C@H](N)C[C@@H]2N)[C@H](O)[C@@H](O)[C@@H]1O` [kanamycin]: the “Kanamycin MIC of the empty vector control strain” value in data set [2] (E. coli BW25113 with empty vector, Etest, 37°C, 20 h) was found to be 0.75 µg/mL.

Consider “IbsC: endogenous E. coli toxin peptide similar to Arp1-3 in size and hydrophobicity (MMRLVIILIVLLLISFSAY; UniProt C1P615 1-19, looked up)”, for which, in data set [2], the “Increased aminoglycoside resistance on overexpression of endogenous E. coli peptides” value (“Increased aminoglycoside resistance” below) is listed as “no increased resistance”.

In the case of “LdrD: endogenous E. coli toxin peptide similar to Arp1-3 in size and hydrophobicity (MTFAELGMAFWHDLAAPVIAGILASMIVNWLNKRK; UniProt Q6BF25 1-35, looked up)”, the “Increased aminoglycoside resistance” value in data set [2] is “no increased resistance”.

As to “TisB: endogenous E. coli K-12 29-mer toxin of a toxin-antitoxin system (MNLVDIAILILKLIVAALQLLDAVLKYLK; UniProt A5A627 1-29, looked up)”, the “Increased aminoglycoside resistance” value in data set [2] is “no increased resistance”. Besides, the Toxicity when expressed result in the data set with E. coli is “lethal”.

As for “carbonyl cyanide m-chlorophenyl hydrazine [CCCP]”, the “Membrane potential, DiBAC4(3) fluorescence” value in data set [3] is “clear shift to higher fluorescence”.

For the origin of these results see paper PMC6550523, “De Novo Emergence of Peptides That Confer Antibiotic Resistance” (mBio, 2019).
